pIC50: −log10 of the molar value. Where a name gives a salt, the structure may show the parent alone.
What was measured:
[1] = biological target: T1, dopamine-β-hydroxylase (DBH) (Bos taurus, UniProt P15101); details: cited from earlier work; for DBH inhibition (in words): literature reports
T1 sequence (P15101 1-610): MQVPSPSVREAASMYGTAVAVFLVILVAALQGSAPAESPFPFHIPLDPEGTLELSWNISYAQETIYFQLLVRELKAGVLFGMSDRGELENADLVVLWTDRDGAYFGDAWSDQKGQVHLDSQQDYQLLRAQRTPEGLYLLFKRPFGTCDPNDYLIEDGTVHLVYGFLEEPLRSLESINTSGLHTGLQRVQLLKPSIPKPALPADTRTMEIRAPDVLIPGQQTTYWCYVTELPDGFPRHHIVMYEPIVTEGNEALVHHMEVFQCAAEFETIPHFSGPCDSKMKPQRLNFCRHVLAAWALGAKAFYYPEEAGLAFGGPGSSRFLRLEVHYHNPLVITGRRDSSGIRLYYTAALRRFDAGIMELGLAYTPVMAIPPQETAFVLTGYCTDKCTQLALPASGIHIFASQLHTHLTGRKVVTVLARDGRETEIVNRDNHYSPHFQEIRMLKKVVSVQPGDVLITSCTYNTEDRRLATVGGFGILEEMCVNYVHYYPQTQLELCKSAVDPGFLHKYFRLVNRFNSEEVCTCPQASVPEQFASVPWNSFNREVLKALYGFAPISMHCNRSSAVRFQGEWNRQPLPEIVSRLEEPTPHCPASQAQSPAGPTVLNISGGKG

[2] = Ehrreich et al.; cited from earlier work
[3] = biological target: T1, dopamine-β-hydroxylase (DBH); assay: in vitro DBH inhibition: conversion of tyramine to octopamine (standard procedure of Pisano et al.); assay type: biochemical; details: absorbance at 330 nm, read-out: DBH IC50 (molar concentration of compound at which DBH activity was halved)
Description: Listed in Table I are the compounds of the invention that were tested for in vitro DBH inhibition by a standard procedure for assaying conversion of tyramine to octopamine in the presence of DBH. J. J. Pisano, et al., Biochim. Biophys. Acta, 43, 566-568 (1960). Octopamine was assayed following sodium periodate oxidation to p-hydroxybenzaldehyde by measuring spectrophotometric absorbance at 330 nm. In Table I, inhibition is given in molar concentration of compound at which DBH activity was halved (IC50).

[4] = mean arterial blood pressure in spontaneously hypertensive rats; assay type: in vivo; details: 50 mg/kg intraperitoneally
Description: Further, spontaneously hypertensive rats were treated with a suspension or solution of N-(2-aminoethyl)-1-(3,5-difluorobenzyl)-2-mercaptoimidazole-5-carboxamide,formate at a dose of 50 mg/kg intraperitoneally, and mean arterial blood pressure was monitored for 260 minutes using indwelling cannulae in the tail arteries.

[5] = Teresawa et al. and references cited therein; cited from earlier work

For `CCCCc1ccc(C(N)=O)nc1` [Bupicomide, 5-(n-butyl)picolinamine], the “DBH inhibition (in words)” value [1] is listed as “DBH inhibitor” and the antihypertensive activity [2] is listed as “has antihypertensive activity”.
For `NNCc1ccccc1` [benzylhydrazine], the “mode of DBH inhibition” value [1] is listed as “competitive inhibitors”.
In the case of `NOCc1ccccc1` [Benzyloxyamine, benzyloxyamine], the “mode of DBH inhibition” value [1] is listed as “competitive inhibitors”.
In the case of `CN(C)C(=S)SCc1ccc(C(=O)O)nc1` [5-(dimethyldithiocarbamoylmethyl)picolinic acid], the “DBH inhibition (in words)” value [1] is listed as “DBH inhibitors”.
For `O=C(O)c1cnc(S)n1Cc1cc(F)cc(F)c1` [1-(3,5-Difluorobenzyl)-2-mercaptoimidazole-5-carboxylic acid], the pIC50 [3] was 4.00.
For `NCCNC(=O)c1cnc(S)n1Cc1cc(F)cc(F)c1` [N-(2-Aminoethyl)-1-(3,5-difluorobenzyl)-2-mercaptoimidazole-5-carboxamide,formate], the pIC50 [3] was 6.47, the “mean arterial blood pressure reduction compared to vehicle-treated controls” value ([4]; spontaneously hypertensive rats) was “significant blood pressure reductions” and the “blood pressure when monitoring was terminated” value ([4]; monitored for 260 minutes) was “blood pressure remained decreased”.
In the case of `O=C(O)c1ccc(CCCCCl)cn1` [5-(4-chlorobutyl) picolinic acid], the “DBH inhibition (in words)” value [1] is given as “inhibit DBH”.
For `CCCCc1ccc(C(=O)O)nc1` [Fusaric acid], the toxicity [5] is listed as “hepatotoxic”.
In the case of `O=C(O)c1ccc(CCC(Br)CBr)cn1` (stereo not drawn) [5-(3,4-dibromobutyl)picolinic acid], the “DBH inhibition (in words)” value [1] is given as “DBH inhibitors”.
